Values of other authors as cited in patent publication US20030109670A1, “Cone snail peptides” (University of Utah Research Foundation, priority 2001, published 2003).
Ends that are not written are not given here.

Key:
[1] = in vivo
[2] = IBS patients
[3] = in vivo; remark: listed apart in the source

Contulakin-G: 16 amino acid O-linked glycopeptide from Conus geographus, agonist of neurotensin receptors (QSEEGGSNATKKPYIL; also: O-linked glycan, site not given here; UniProt Q9XYR5 51-66, looked up)
potency in inhibiting pain relative to neurotensin [1]: significantly more potent than neurotensin

Cc1[nH]cnc1CN1CCc2c(c3ccccc3n2C)C1=O [Alosteron]
perception of colonic distension and gut compliance [2]: active in modifying the perception of colonic distension and gut compliance | abdominal pain, colonic transit, colon compliance ([2]; phase III compound): reduce abdominal pain, slow colonic transit and increase colon compliance

CSCC[C@@H]1NC(=O)[C@H](CC(C)C)NC(=O)[C@H](CCCNC(=N)N)NC(=O)[C@H](CO)NC(=O)[C@@H]2CSSC[C@@H]3NC(=O)[C@H](CO)NC(=O)CNC(=O)[C@H]([C@@H](C)O)NC(=O)[C@H](CSSC[C@H](N)C(=O)N[C@@H](CCCCN)C(=O)NCC(=O)N[C@@H](CCCCN)C(=O)NCC(=O)N[C@@H](C)C(=O)N[C@@H](CCCCN)C(=O)N2)NC(=O)[C@H](CSSC[C@@H](C(N)=O)NC(=O)[C@H](CCCCN)NC(=O)CNC(=O)[C@H](CO)NC(=O)[C@H](CCCNC(=N)N)NC3=O)NC(=O)[C@H](CC(=O)O)NC(=O)[C@H](Cc2ccc(O)cc2)NC1=O [ω-Conotoxin MVIIA]
potency relative to morphine [3]: approximately 1000 times | tolerance or addictive properties [3]: does not produce the tolerance or addictive properties of opiates
